Reference: publication PMC3961306, “Comparison of the Cancer Gene Targeting and Biochemical Selectivities of All Targeted Kinase Inhibitors Approved for Clinical Use” (PLoS ONE, 2014)

Columns and labels:
Assay in all cases: Kinase profiling in a biochemical assay panel (mobility shift assays and ELISA), %-inhibition at 1 μM; selectivity entropy
[1] = target: panel of more than 300 wild-type and mutant kinases (313 kinase panel) (Homo sapiens, UniProt P80192)
[2] = target: panel of more than 300 wild-type and mutant kinases (313 kinase panel) (Homo sapiens, UniProt P04626)
[3] = target: panel of more than 300 wild-type and mutant kinases (313 kinase panel) (Homo sapiens, UniProt O94804)
[4] = target: panel of more than 300 wild-type and mutant kinases (313 kinase panel) (Homo sapiens, UniProt P16234)
[5] = target: panel of more than 300 wild-type and mutant kinases (313 kinase panel) (Homo sapiens, UniProt Q9NQU5)
[6] = target: panel of more than 300 wild-type and mutant kinases (313 kinase panel) (Homo sapiens, UniProt Q9UK32)
[7] = target: panel of more than 300 wild-type and mutant kinases (313 kinase panel) (Homo sapiens, UniProt Q13131)
[8] = target: T1, panel of more than 300 wild-type and mutant kinases (313 kinase panel) (Homo sapiens, UniProt P00540)
T1 sequence (P00540 1-346): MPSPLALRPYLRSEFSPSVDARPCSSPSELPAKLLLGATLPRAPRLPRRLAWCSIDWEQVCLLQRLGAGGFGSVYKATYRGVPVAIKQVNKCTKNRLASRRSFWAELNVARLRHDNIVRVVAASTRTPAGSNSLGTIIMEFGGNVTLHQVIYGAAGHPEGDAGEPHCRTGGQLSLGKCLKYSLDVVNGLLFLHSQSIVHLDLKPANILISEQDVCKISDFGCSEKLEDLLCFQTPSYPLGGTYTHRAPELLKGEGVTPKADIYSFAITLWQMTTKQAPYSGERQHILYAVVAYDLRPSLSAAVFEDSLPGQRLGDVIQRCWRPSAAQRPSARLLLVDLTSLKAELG

[9] = target: panel of more than 300 wild-type and mutant kinases (313 kinase panel) (Homo sapiens, UniProt P14616)
[10] = target: panel of more than 300 wild-type and mutant kinases (313 kinase panel) (Homo sapiens, UniProt O60674)
[11] = target: panel of more than 300 wild-type and mutant kinases (313 kinase panel) (Homo sapiens, UniProt P09769)
[12] = target: T2, panel of more than 300 wild-type and mutant kinases (313 kinase panel) (Homo sapiens, UniProt P29320)
T2 sequence (P29320 21-983): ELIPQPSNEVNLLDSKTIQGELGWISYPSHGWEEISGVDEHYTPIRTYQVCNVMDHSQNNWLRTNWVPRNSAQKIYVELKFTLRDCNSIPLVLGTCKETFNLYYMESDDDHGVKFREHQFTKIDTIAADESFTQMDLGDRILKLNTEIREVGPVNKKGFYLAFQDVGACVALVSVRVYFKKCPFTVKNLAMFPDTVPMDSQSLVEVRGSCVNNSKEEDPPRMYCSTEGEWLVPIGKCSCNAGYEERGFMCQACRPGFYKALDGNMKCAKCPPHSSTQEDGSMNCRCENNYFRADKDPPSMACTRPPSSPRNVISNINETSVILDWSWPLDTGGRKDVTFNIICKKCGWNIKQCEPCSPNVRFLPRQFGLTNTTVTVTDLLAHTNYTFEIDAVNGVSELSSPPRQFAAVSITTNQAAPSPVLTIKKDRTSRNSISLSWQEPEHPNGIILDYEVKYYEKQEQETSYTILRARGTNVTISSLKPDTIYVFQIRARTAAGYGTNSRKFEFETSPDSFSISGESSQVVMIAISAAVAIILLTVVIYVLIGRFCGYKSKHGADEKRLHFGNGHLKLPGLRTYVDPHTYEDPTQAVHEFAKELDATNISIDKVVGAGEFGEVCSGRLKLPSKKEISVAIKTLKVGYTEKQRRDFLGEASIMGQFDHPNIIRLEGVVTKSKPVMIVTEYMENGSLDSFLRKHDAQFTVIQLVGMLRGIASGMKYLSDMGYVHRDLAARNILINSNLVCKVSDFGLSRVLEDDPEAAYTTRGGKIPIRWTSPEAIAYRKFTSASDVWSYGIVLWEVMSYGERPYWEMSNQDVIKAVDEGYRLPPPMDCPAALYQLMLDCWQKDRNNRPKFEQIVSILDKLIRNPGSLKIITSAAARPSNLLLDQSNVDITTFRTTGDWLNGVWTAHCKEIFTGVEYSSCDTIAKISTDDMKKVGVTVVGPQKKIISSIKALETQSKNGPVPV

[13] = target: panel of more than 300 wild-type and mutant kinases (313 kinase panel) (Homo sapiens, UniProt P29317)
[14] = kinase AMPKα1/β1/γ1, 1 μM compound

Chain of panel of more than 300 wild-type and mutant kinases (313 kinase panel) (Homo sapiens, UniProt P16234) (P16234 24-1089, change not shown): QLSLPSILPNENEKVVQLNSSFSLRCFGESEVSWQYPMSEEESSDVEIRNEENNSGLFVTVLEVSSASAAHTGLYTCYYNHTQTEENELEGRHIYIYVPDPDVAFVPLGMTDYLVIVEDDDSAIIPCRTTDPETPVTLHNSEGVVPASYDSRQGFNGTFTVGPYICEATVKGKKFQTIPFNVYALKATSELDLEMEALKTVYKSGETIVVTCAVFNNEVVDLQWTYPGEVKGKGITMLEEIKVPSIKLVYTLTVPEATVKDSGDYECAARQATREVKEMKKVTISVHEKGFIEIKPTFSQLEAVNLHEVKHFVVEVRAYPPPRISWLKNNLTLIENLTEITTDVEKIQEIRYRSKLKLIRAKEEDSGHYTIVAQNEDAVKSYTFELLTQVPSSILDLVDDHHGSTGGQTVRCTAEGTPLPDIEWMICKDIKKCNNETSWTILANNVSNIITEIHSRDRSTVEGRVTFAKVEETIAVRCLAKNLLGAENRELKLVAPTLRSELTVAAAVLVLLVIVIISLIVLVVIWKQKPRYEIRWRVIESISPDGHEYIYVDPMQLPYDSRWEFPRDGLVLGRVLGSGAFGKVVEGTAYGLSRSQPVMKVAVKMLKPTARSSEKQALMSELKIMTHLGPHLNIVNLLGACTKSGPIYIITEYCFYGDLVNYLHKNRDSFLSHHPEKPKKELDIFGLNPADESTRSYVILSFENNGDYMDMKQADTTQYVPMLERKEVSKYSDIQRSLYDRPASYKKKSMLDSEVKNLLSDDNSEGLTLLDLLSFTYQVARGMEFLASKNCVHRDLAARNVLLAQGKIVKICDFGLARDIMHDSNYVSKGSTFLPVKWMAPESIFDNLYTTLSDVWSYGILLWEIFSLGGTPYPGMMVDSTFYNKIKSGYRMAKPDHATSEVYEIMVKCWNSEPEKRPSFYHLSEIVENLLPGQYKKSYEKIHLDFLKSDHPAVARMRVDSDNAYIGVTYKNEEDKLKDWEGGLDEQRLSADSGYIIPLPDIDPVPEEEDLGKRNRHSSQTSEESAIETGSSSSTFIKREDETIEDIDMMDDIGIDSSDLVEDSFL
Chain of panel of more than 300 wild-type and mutant kinases (313 kinase panel) (Homo sapiens, UniProt P04626) (P04626 23-1255, change not shown): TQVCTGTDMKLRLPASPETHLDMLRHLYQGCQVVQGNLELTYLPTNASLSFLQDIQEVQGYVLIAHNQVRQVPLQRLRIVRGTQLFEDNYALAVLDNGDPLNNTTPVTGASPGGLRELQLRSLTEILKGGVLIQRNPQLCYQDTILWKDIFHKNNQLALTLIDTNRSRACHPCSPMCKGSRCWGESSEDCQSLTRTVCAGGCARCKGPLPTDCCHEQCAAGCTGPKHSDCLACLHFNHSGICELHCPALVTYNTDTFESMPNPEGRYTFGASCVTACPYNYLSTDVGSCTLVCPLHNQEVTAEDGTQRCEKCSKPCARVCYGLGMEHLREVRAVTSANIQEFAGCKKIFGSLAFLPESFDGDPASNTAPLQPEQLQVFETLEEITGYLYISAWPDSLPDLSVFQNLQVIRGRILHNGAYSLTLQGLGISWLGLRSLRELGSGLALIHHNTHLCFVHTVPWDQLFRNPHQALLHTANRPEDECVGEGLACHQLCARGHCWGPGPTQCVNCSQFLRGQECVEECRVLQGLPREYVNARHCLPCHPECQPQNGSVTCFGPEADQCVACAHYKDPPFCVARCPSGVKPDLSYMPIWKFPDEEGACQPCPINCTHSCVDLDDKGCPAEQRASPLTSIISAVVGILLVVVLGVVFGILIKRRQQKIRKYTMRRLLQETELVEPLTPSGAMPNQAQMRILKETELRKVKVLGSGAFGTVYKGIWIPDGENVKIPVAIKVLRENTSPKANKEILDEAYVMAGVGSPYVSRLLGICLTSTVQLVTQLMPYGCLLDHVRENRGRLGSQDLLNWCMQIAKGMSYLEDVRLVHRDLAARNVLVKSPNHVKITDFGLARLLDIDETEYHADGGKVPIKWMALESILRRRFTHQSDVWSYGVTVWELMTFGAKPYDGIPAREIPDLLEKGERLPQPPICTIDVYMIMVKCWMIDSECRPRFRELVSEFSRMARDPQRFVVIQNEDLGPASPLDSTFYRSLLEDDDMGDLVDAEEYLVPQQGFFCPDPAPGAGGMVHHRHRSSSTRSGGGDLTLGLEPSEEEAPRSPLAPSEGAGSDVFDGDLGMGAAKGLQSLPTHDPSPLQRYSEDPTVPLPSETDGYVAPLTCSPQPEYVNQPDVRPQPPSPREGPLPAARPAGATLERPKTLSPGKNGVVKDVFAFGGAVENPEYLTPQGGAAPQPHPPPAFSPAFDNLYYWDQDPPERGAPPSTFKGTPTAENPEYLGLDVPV
Chain of panel of more than 300 wild-type and mutant kinases (313 kinase panel) (Homo sapiens, UniProt P80192) (P80192 whole entry, change not shown): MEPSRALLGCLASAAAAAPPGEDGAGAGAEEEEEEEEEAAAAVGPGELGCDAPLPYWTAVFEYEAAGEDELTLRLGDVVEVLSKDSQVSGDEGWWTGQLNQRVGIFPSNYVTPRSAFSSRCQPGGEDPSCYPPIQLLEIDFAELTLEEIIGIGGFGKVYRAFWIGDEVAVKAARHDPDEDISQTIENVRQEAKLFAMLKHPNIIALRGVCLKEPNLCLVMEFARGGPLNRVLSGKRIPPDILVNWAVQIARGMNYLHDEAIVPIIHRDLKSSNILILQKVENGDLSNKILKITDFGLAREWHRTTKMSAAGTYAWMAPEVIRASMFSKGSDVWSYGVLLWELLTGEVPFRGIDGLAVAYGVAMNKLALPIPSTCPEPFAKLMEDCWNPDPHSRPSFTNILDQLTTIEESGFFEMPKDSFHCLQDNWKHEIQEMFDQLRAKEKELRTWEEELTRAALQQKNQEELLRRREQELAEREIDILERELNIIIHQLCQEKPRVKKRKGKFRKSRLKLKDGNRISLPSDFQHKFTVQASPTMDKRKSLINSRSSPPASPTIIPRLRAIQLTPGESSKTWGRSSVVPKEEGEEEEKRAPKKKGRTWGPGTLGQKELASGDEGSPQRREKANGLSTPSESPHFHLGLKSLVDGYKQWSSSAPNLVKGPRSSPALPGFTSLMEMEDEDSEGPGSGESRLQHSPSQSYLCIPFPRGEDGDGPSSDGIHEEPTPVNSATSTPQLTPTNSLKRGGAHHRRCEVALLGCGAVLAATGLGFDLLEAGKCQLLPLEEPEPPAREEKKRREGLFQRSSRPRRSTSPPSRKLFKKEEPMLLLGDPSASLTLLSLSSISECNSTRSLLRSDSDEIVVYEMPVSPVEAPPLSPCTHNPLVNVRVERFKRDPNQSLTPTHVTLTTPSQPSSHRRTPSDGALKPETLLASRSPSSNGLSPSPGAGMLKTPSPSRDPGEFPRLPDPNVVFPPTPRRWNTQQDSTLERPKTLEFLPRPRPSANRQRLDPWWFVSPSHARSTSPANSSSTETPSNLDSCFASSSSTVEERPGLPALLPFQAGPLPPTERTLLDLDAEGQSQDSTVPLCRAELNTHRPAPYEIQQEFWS
Chain of panel of more than 300 wild-type and mutant kinases (313 kinase panel) (Homo sapiens, UniProt Q9UK32) (Q9UK32 whole entry, change not shown): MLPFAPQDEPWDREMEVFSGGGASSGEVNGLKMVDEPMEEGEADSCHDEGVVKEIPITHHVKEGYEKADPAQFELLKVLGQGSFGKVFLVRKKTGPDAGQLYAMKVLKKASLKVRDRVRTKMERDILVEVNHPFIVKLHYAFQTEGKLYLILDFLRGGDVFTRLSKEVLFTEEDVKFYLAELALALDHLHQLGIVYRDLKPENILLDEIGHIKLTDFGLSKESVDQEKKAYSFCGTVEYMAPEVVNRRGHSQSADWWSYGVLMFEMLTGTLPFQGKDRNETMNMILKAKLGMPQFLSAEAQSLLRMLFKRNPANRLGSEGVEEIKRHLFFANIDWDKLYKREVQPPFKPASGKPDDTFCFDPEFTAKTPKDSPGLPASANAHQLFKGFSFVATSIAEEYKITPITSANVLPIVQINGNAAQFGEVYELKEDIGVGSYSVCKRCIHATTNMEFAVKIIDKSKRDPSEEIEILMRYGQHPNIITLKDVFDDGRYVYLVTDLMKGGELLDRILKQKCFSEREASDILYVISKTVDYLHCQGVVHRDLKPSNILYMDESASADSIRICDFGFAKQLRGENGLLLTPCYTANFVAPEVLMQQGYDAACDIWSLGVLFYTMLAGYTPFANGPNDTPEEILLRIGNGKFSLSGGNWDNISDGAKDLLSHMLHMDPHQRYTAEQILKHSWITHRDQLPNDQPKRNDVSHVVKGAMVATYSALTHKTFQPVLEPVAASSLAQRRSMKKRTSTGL
Chain of panel of more than 300 wild-type and mutant kinases (313 kinase panel) (Homo sapiens, UniProt Q13131) (Q13131 whole entry, change not shown): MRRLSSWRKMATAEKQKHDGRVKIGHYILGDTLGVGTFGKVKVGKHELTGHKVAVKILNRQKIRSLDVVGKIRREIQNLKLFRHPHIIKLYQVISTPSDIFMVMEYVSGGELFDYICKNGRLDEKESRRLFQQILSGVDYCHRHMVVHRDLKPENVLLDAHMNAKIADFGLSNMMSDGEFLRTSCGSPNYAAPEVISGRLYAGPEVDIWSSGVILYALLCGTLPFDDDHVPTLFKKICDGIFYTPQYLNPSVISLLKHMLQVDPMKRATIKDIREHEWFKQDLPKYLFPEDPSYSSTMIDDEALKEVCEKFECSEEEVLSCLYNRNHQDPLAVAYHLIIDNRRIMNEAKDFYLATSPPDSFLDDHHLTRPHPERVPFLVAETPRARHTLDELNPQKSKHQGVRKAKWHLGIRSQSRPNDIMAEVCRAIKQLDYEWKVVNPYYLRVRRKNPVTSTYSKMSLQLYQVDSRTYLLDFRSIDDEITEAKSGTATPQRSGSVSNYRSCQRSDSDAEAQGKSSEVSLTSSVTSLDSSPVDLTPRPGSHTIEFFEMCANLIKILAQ

Structure (SMILES)	%-inhibition of MLK1 ([1]; kinase MLK1, 1 μM)	%-inhibition of HER2 ([2]; kinase HER2, compound at 1 μM)	%-inhibition of LOK ([3]; kinase LOK, compound at 1 μM)	%-inhibition of PDGFRα ([4]; kinase PDGFRα, 1 μM)	%-inhibition of PAK6 ([5]; kinase PAK6, 1 μM)	%-inhibition of RSK4 ([6]; kinase RSK4, 1 μM)	%-inhibition, AMPKα1/β1/γ1 [7, 14]	%-inhibition of MOS ([8]; kinase MOS, 1 μM)	%-inhibition of IRR ([9]; kinase IRR, compound at 1 μM)	%-inhibition of JAK2 ([10]; kinase JAK2, compound at 1 μM)	%-inhibition of FGR ([11]; kinase FGR, compound at 1 μM)	%-inhibition of EPHA3 ([12]; kinase EPHA3, compound at 1 μM)	%-inhibition of EPHA2 ([13]; kinase EPHA2, compound at 1 μM)	%-inhibition of PDGFRα ([4]; 1 µM)	further results
COc1cc2nccc(Oc3ccc(NC(=O)C4(C(=O)Nc5ccc(F)cc5)CC4)cc3)c2cc1OC [cabozantinib]	20%	10%	96%	100%	-4%	-3.65%	-1%	42%	66%	29%	94%	97%	98%	–	–
C#Cc1cccc(Nc2ncnc3cc(OCCOC)c(OCCOC)cc23)c1 [erlotinib]	–	–	–	–	–	–	–	–	–	–	–	–	–	52%	%-inhibition of MLK1 ([1]; 1 µM): 14%; %-inhibition of LOK ([3]; 1 µM): 93%; %-inhibition of PAK6 ([5]; 1 µM): 5%; %-inhibition of RSK4 ([6]; 1 µM): 8%; %-inhibition, AMPKα1/β1/γ1 ([7]; 1 µM): 2%; %-inhibition of MOS ([8]; 1 µM): 3.64%; %-inhibition of IRR ([9]; 1 µM): -12%; %-inhibition of JAK2 ([10]; 1 µM): 36%; %-inhibition of FGR ([11]; 1 µM): 29%; %-inhibition of EPHA3 ([12]; 1 µM): 15%; %-inhibition of EPHA2 ([13]; 1 µM): 18%
O=S(=O)(c1cccc2cnccc12)N1CCCNCC1 [fasudil]	3.31%	0.678%	11%	16%	8%	16%	-14%	-24%	0.15%	3.24%	-4.71%	-7%	-7%	–	–
CS(=O)(=O)CCNCc1ccc(-c2ccc3ncnc(Nc4ccc(OCc5cccc(F)c5)c(Cl)c4)c3c2)o1 [lapatinib]	7%	–	17%	–	0.144%	–	-5%	4.31%	-4%	-1.58%	10%	–	1.22%	40%	%-inhibition of HER2 ([2]; 1 µM): 85%; %-inhibition of RSK4 ([6]; 1 µM): 2.39%; %-inhibition of EPHA3 ([12]; 1 µM): 0.372%
Cc1cn(-c2cc(NC(=O)c3ccc(C)c(Nc4nccc(-c5cccnc5)n4)c3)cc(C(F)(F)F)c2)cn1 [nilotinib]	-12%	–	–	–	–	11%	–	-3.64%	–	19%	55%	87%	–	103%	%-inhibition of HER2 ([2]; 1 µM): 4.25%; %-inhibition of LOK ([3]; 1 µM): -18%; %-inhibition of PAK6 ([5]; 1 µM): -102%; %-inhibition, AMPKα1/β1/γ1 ([7]; 1 µM): -12%; %-inhibition of IRR ([9]; 1 µM): -0.717%; %-inhibition of EPHA2 ([13]; 1 µM): 95%
CNC(=O)c1cc(Oc2ccc(NC(=O)Nc3ccc(Cl)c(C(F)(F)F)c3)c(F)c2)ccn1 [regorafenib]	-7%	6.43%	80%	102%	-8%	-1.19%	-0.723%	0.399%	-4%	33%	56%	80%	88%	–	–
COc1cc2c(Nc3ccc(Br)cc3F)ncnc2cc1OCC1CCN(C)CC1 [vandetanib]	42%	67%	92%	101%	-5.42%	5.43%	9%	9%	-3.23%	0.942%	86%	57%	86%	–	–
CCCS(=O)(=O)Nc1ccc(F)c(C(=O)c2c[nH]c3ncc(-c4ccc(Cl)cc4)cc23)c1F [vemurafenib]	10%	2%	-1%	87%	-7%	-3%	-1.59%	10%	21%	18%	93%	-7.52%	0.715%	–	–
